From US20230233569A1 (Revolution Medicines, Inc., priority 2020, published 2023)
Like-named read-outs stand apart in the source and are kept apart here.

Legend:
Assay in all cases: Ras-Raf disruption / FRET / MOA assay (BRAF RBD)
Assay type in all cases: biochemical
[1] = target: KRAS G12D (Homo sapiens, UniProt P01116+P62937, G12D); settings: with Cyclophilin A
Method in brief: (§1)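 TR-FRET in 25 mM HEPES pH 7.3, 100 mM NaCl, 5 mM MgCl2, 0.1% BSA, 0.002% Tween20 with 25 μM Cyclophilin A, 12.5 nM His6-Ras-GMPPNP, 50 nM GST-BRAF RBD; compound 10-point 3-fold series from 30 μM. After 3 h at 25 °C, Eu anti-His/APC anti-GST added for 1.5 h; IC50 from ratio decrease versus DMSO.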

[2] = target: KRAS G12S (Homo sapiens, UniProt P01116+P62937, G12S); settings: with Cyclophilin A
Chain of KRAS G12S (P01116 1-169 isoform P01116-2 G12S limits assumed): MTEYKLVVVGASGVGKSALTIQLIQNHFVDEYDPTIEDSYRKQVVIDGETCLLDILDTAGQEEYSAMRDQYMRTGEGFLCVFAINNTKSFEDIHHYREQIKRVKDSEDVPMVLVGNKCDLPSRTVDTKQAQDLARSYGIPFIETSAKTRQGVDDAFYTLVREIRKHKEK
Chain of KRAS G12S (P62937 whole entry): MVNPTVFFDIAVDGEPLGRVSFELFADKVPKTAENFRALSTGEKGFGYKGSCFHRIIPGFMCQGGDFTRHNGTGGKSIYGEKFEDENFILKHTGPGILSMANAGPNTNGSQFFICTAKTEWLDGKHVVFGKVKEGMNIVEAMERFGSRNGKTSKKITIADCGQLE
Method in brief: as §1

[3] = target: KRAS G12V (Homo sapiens, UniProt P01116+P62937, G12V); settings: with Cyclophilin A
Chain of KRAS G12V (P01116 1-169 isoform P01116-2 G12V limits assumed): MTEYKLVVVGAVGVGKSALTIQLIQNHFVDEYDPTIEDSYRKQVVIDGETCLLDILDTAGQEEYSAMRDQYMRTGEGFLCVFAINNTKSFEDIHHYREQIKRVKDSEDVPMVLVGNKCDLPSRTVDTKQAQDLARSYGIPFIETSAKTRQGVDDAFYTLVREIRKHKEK
Chain of KRAS G12V (P62937 whole entry): as the sequence (P62937 whole entry) above
Method in brief: as §1

[4] = target: KRAS G13C (Homo sapiens, UniProt P01116+P62937, G13C); settings: with Cyclophilin A
Chain of KRAS G13C (P01116 1-169 isoform P01116-2 G13C limits assumed): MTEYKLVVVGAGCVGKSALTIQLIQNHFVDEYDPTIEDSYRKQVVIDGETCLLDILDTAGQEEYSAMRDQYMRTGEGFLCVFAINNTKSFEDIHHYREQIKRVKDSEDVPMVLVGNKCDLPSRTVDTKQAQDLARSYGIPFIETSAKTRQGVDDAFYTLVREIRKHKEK
Chain of KRAS G13C (P62937 whole entry): as the sequence (P62937 whole entry) above
Method in brief: as §1

[5] = target: KRAS G13D (Homo sapiens, UniProt P01116+P62937, G13D); settings: with Cyclophilin A
Chain of KRAS G13D (P01116 1-169 isoform P01116-2 G13D limits assumed): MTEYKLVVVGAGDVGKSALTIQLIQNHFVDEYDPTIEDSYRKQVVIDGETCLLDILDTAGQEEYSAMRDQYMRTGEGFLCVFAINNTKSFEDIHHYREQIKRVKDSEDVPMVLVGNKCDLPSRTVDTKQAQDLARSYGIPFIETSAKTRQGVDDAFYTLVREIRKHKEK
Chain of KRAS G13D (P62937 whole entry): as the sequence (P62937 whole entry) above
Method in brief: as §1

[6] = target: KRAS Q61H (Homo sapiens, UniProt P01116+P62937, Q61H)
Chain of KRAS Q61H (P01116 1-169 isoform P01116-2 Q61H limits assumed): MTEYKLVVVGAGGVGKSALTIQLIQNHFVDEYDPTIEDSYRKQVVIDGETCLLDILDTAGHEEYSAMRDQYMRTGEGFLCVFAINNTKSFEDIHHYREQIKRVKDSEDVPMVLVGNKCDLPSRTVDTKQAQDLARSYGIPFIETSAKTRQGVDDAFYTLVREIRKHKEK
Chain of KRAS Q61H (P62937 whole entry): as the sequence (P62937 whole entry) above
Method in brief: as §1

[7] = target: KRAS WT (Homo sapiens, UniProt P01116+P62937); settings: with Cyclophilin A
Chain of KRAS WT (P01116 1-169 isoform P01116-2 limits assumed): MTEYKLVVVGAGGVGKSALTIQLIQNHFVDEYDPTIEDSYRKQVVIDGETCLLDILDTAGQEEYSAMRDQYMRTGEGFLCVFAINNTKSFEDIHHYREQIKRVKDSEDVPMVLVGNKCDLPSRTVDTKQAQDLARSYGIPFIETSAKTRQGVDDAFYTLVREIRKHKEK
Chain of KRAS WT (P62937 whole entry): as the sequence (P62937 whole entry) above
Method in brief: as §1

[8] = target: NRAS G12C (Homo sapiens, UniProt P01111+P62937, G12C)
Chain of NRAS G12C (P01111 whole entry G12C): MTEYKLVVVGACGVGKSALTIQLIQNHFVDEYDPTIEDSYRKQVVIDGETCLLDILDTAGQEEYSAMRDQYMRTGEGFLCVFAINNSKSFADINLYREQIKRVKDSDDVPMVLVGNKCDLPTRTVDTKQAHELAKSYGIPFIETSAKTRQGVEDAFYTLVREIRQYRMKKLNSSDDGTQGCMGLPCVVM
Chain of NRAS G12C (P62937 whole entry): as the sequence (P62937 whole entry) above
Method in brief: as §1

[9] = target: NRAS Q61K (Homo sapiens, UniProt P01111+P62937, Q61K)
Chain of NRAS Q61K (P01111 whole entry Q61K): as the sequence (P01111 whole entry G12C) above, with C12G, Q61K counted along it
Chain of NRAS Q61K (P62937 whole entry): as the sequence (P62937 whole entry) above
Method in brief: as §1

[10] = target: NRAS Q61R (Homo sapiens, UniProt P01111+P62937, Q61R)
Chain of NRAS Q61R (P01111 whole entry Q61R): as the sequence (P01111 whole entry G12C) above, with C12G, Q61R counted along it
Chain of NRAS Q61R (P62937 whole entry): as the sequence (P62937 whole entry) above
Method in brief: as §1

[11] = target: NRAS WT (Homo sapiens, UniProt P01111+P62937)
Chain of NRAS WT (P01111 whole entry): as the sequence (P01111 whole entry G12C) above, with C12G counted along it
Chain of NRAS WT (P62937 whole entry): as the sequence (P62937 whole entry) above
Method in brief: as §1

[12] = target: KRAS G12C (Homo sapiens, UniProt P01116+P62937, G12C); settings: with Cyclophilin A
Chain of KRAS G12C (P01116 1-169 isoform P01116-2 G12C limits assumed): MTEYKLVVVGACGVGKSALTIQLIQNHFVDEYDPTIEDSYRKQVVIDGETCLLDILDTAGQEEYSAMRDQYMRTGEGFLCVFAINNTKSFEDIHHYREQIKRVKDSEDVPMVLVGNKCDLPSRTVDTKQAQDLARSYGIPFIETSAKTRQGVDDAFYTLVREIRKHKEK
Chain of KRAS G12C (P62937 whole entry): as the sequence (P62937 whole entry) above
Method in brief: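 His6-K-Ras G12C-GMPPNP (12.5 nM), GST-BRAF RBD (50 nM) and tagless Cyclophilin A (25 μM) incubated 3 h at 25 °C with compound (10-point 3-fold series from 30 μM), pH 7.3 HEPES buffer. Anti-His Eu/anti-GST APC added for 1.5 h; decreased TR-FRET ratio vs DMSO gives IC50.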

[13] = Ras-Raf disruption, read-out: KRAS G12D FRET data IC50
[14] = Ras-Raf disruption, read-out: KRAS G12S FRET data IC50
[15] = Ras-Raf disruption, read-out: KRAS G12V FRET data IC50
[16] = Ras-Raf disruption, read-out: KRAS G13C FRET data IC50
[17] = Ras-Raf disruption, read-out: KRAS G13D FRET data IC50
[18] = KRAS Q61H, read-out: KRAS Q61H FRET data IC50
[19] = Ras-Raf disruption, read-out: KRAS WT FRET data IC50
[20] = NRAS G12C, read-out: NRAS G12C FRET data IC50
[21] = NRAS Q61K, read-out: NRAS Q61K FRET data IC50
[22] = NRAS Q61R, read-out: NRAS Q61R FRET data IC50
[23] = NRAS WT, read-out: NRAS WT FRET data IC50
[24] = Ras-Raf disruption, read-out: KRAS G12C FRET data IC50

Chain of KRAS G12D (P01116 1-169 isoform P01116-2 G12D limits assumed): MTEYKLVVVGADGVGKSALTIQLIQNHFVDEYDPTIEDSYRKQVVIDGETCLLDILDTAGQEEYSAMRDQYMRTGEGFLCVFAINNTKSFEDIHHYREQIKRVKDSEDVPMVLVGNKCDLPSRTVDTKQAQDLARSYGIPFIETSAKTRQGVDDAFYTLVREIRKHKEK
Chain of KRAS G12D (P62937 whole entry): as the sequence (P62937 whole entry) above

SMILES | IC50 [1, 13] [µM] | IC50 [2, 14] [µM] | IC50 [3, 15] [µM] | IC50 [4, 16] [µM] | IC50 [5, 17] [µM] | IC50 [6, 18] [µM] | IC50 [7, 19] [µM] | IC50 [8, 20] [µM] | IC50 [9, 21] [µM] | IC50 [10, 22] [µM] | IC50 [11, 23] [µM] | IC50 [12, 24] [µM] | also measured
CCn1c(-c2cccnc2[C@H](C)OC)c2c3cc(ccc31)-c1cc(O)cc(c1)C[C@H](NC(=O)[C@H](C1CCCC1)N(C)C(=O)CN(C)C(=O)[C@@H]1N[C@@H]1C1(OC)CC1)C(=O)N1CCC[C@H](N1)C(=O)OCC(C)(C)C2 (single isomer, unassigned) [Example 323] |  |  |  |  |  |  |  |  |  |  |  |  | IC50 ([1]; KRAS G12D FRET data IC50, Ras-Raf disruption): 0.1 to 1 µM; IC50 ([2]; KRAS G12S FRET data IC50, Ras-Raf disruption): 0.01 to 0.1 µM; IC50 ([3]; KRAS G12V FRET data IC50, Ras-Raf disruption): 0.01 to 0.1 µM; IC50 ([4]; KRAS G13C FRET data IC50, Ras-Raf disruption): 0.01 to 0.1 µM; IC50 ([5]; KRAS G13D FRET data IC50, Ras-Raf disruption): 0.1 to 1 µM; IC50 [6]: 0.01 to 0.1 µM; IC50 ([7]; KRAS WT FRET data IC50, Ras-Raf disruption): 0.01 to 0.1 µM; IC50 ([8]; NRAS G12C FRET data IC50, NRAS G12C): 0.01 to 0.1 µM; IC50 [9]: 0.1 to 1 µM; IC50 [10]: 0.1 to 1 µM; IC50 [11]: 0.01 to 0.1 µM; IC50 ([12]; KRAS G12C FRET data IC50, Ras-Raf disruption): 0.01 to 0.1 µM
CCn1c(-c2cccnc2[C@H](C)OC)c2c3cc(ccc31)-c1csc(n1)C[C@H](NC(=O)[C@H](C(C)C)N(C)C(=O)N(C)[C@H]1CCN(C(=O)[C@@H]3CN3)C1)C(=O)N1CCC[C@H](N1)C(=O)OCC(C)(C)C2 (atropisomer, axis not shown) [Example 310] | 1 to 10 | 0.1 to 1 | 0.1 to 1 | 0.1 to 1 | 1 to 10 | 0.1 to 1 | 0.1 to 1 | 0.1 to 1 | 0.1 to 1 | 0.1 to 1 | 0.1 to 1 | 0.1 to 1 | 
CCn1c(-c2cccnc2[C@H](C)OC)c2c3cc(ccc31)-c1csc(n1)C[C@H](NC(=O)[C@H](C(C)C)N(C)C(=O)N1CC[C@H](N(C)C(=O)[C@@H]3CN3)C1)C(=O)N1CCC[C@H](N1)C(=O)OCC(C)(C)C2 (atropisomer, axis not shown) [Example 229] | 1 to 10 | 0.1 to 1 | 0.1 to 1 | 0.1 to 1 | 0.1 to 1 | 0.01 to 0.1 | 0.1 to 1 | 0.1 to 1 | 0.01 to 0.1 | 0.1 to 1 | 0.1 to 1 | 0.1 to 1 | 
CCn1c(-c2cccnc2[C@H](C)OC)c2c3cc(ccc31)-c1csc(n1)C[C@H](NC(=O)[C@H](C(C)C)N(C)C(=O)N1CC[C@H]1CN(C)C(=O)[C@@H]1CN1)C(=O)N1CCC[C@H](N1)C(=O)OCC(C)(C)C2 [Example 235] | 1 to 10 | 1 to 10 | 1 to 10 | 1 to 10 | 1 to 10 | 0.1 to 1 | 1 to 10 | 0.1 to 1 | 0.1 to 1 | 1 to 10 | 1 to 10 | 0.1 to 1 | 
CCn1c(-c2cccnc2[C@H](C)OC)c2c3cc(ccc31)-c1csc(n1)C[C@H](NC(=O)[C@H](C(C)C)N(C)C(=O)N1CCN(C(=O)[C@H]3CN3)[C@H](C)C1)C(=O)N1CCC[C@H](N1)C(=O)OCC(C)(C)C2 [Example 299] | 0.1 to 1 | 0.1 to 1 | 0.1 to 1 | 0.1 to 1 | 0.1 to 1 | 0.01 to 0.1 | 0.1 to 1 | 0.01 to 0.1 | 0.01 to 0.1 | 0.1 to 1 | 0.1 to 1 | 0.01 to 0.1 | 
CCn1c(-c2cccnc2[C@H](C)OC)c2c3cc(ccc31)-c1cc(O)cc(c1)C[C@H](NC(=O)[C@H](C(C)C)N(C)C(=O)N1CC[C@@H](N(C)C(=O)[C@H]3CN3)C1)C(=O)N1CCC[C@H](N1)C(=O)OCC(C)(C)C2 (atropisomer, axis not shown) [Example 252] | 0.1 to 1 | 0.1 to 1 | 0.1 to 1 | 0.01 to 0.1 | 0.1 to 1 | 0.01 to 0.1 | 0.01 to 0.1 | < 0.01 | 0.1 to 1 | 0.1 to 1 | 0.01 to 0.1 | < 0.01 | 
